In patent publication US4103082A, “Aminocyclitol derivatives and process for producing the same” (priority 1975, dated 1978):
≈ marks a conversion by molar mass, not a printed value. Read-outs that look alike come from different tables or passages of the source.

Key:
Type in all cases: cell-based
Klebsiella pneumoniae = assay: antibacterial activity (Minimum Inhibitory Concentration)
[1] = system: Bacillus anthracis No. 119; assay: microbe, parasite or virus in culture
Klebsiella 7 = assay: paper disk method, inhibitory zone diameter; conditions: Klebsiella, 7; for zone of inhibition at 2000 µg/mL: 2000 γ/ml, read-out: inhibitory zone diameter

| Compound | MIC (Klebsiella pneumoniae) [µg/mL] | MIC [1] [µg/mL] | zone of inhibition at 2000 µg/mL (Klebsiella 7) [mm] | MIC (Klebsiella pneumoniae; read-out: MIC) [µg/mL] | zone of inhibition at 250 µg/mL (Klebsiella 7; 250 γ/ml) [mm] | zone of inhibition at 500 µg/mL (Klebsiella 7; 500 γ/ml) [mm] | zone of inhibition at 1000 µg/mL (Klebsiella 7; 1000 γ/ml) [mm] |
| --- | --- | --- | --- | --- | --- | --- | --- |
| NC[C@H]1O[C@H](O[C@H]2C[C@@H](O)[C@H](N)C[C@@H]2N)[C@H](N)[C@@H](O)[C@@H]1O [5-Deoxyneamine, 5-deoxyneamine] | 6.25 (≈ 20.4 µM) | 1.56 (≈ 5.09 µM) | 0 |  |  |  |  |
| NC[C@H]1O[C@H](O[C@H]2[C@H](O)C[C@H](N)C[C@@H]2N)[C@H](N)[C@@H](O)[C@@H]1O [6-Deoxyneamine, 6-deoxyneamine] |  | 12.5 (≈ 40.8 µM) | 17.5 | 25 (≈ 81.6 µM) | 0 | 11.2 | 15.6 |
